Values joined by “and” are separate entries in the source; they are usually repeats but may differ in a detail not shown here. Identical values can stand only once. “Also recorded” adds a separate entry of the source. Like-named read-outs stand apart in the source and are kept apart here.
What was measured:
Format in all cases: physicochemical
[1] = Absorption spectrum of material-containing resin film (spectrophotometer UV3600)
Description: TPU pellets (Tecoflex EG85A, manufactured by Lubrizol Corp.) (100 g) and a near infrared fluorescent material A (5 mg) synthesized in Preparation Example 1 were mixed, and the mixture was attached to the pellet surfaces.
Next, the pellets were put into Labo Plastomill, and melt-kneaded (kneading) at a set temperature of 190° C. for 10 minutes. Thereafter, the kneaded material-containing resin was taken out, and made to be a film.
The film was obtained in the following manner. First, the material-containing resin was heated for 5 minutes while being sandwiched between iron plates heated to 200° C., and pressed at […] while the steel plates were cooled. […]

[2] = Emission (fluorescence) spectrum and fluorescence quantum yield of material-containing resin film (Quantaurus-QY C11347)
[3] = Eluting test of the material from the material-containing film (ISO10993-10 Annex E, methanol extraction)
Description: In Example 1, the operation was performed in the same manner as in Example 1 except that 100 mg of the near infrared fluorescent material A was used, a material-containing TPU film having a thickness of about 300 μm and having a material concentration of the near infrared fluorescent material A of 0.1% by mass was prepared.
An Eluting test of the obtained material-containing TPU film was performed. The eluting operation of the film was performed as follows according to ISO10993-10AnnexE. 5 g of the material-containing TPU film was cut into a size of 2 cm×2 cm, and then was put into a 300 mL conical flask with 100 mL of methanol, followed by shaking at 25° C. of room temperature for 8 hours. Next, the methanol was separated by filtration once, and the resultant product was extracted two times with the same amount of methanol by using the same film fine piece. The methanol extracted liquid obtained by the total three times of operations was concentrated by an evaporator, and the residues were melted with 5 mL of dichloromethane to obtain a test liquid.
The absorption spectrum and the light emission spectrum of the obtained test liquid were measured. As a result, the absorption and the fluorescent derived from the near infrared fluorescent material A could not be confirmed. […] Since the near infrared fluorescent material A was hardly eluted, a medical implant having high safeness which is molded using the resin composition according to the present invention was obtained.

[4] = Absorption spectrum of material-containing resin film (spectrophotometer UV3600); settings: PP film, material 10 mg per 100 g PP (Example 2)
[5] = TPU film, material 5 mg per 100 g TPU (0.005% by mass), melt-kneaded at 190° C.
[6] = TPU film, material 0.1% by mass, about 300 μm, methanol, 25° C., 8 hours, three extractions
[7] = PP film, material 10 mg per 100 g PP (Example 2)
[8] = methanol extract of TPU film, residues in dichloromethane

SMILES	Absorption peak [1]	Fluorescence peak [2]	Quantum yield [2]	Presence or absence of material elution [3]	Presence or absence of material elution [3, 6]	further results
CCCCCCCCOc1ccc(-c2c3c4n(c(-c5ccc(OCCCCCCCC)cc5)c3c3n2[B-](c2ccccc2)(c2ccccc2)[n+]2c(C)cc(C)nc2C=3C#N)[B-](c2ccccc2)(c2ccccc2)[n+]2c(C)cc(C)nc2C=4C#N)cc1 [near infrared fluorescent material G]	756 nm	778 nm and 870 nm	35%	not eluted; also recorded: Absence	–	–
F[B-]1(F)n2c(cc3sc(-c4cccs4)cc32)C(C(F)(F)F)=C2C=c3sc(-c4cccs4)cc3=[N+]21 [near infrared fluorescent material E]	–	–	–	–	not eluted; also recorded: Absence	Absorption peak [1, 5]: 741 nm; Fluorescence peak [2, 5]: 772 nm; Quantum yield [2, 5]: 11%
CCCCCCCCOc1ccc(-c2c3c4n(c(-c5ccc(OCCCCCCCC)cc5)c3c3n2[B-](F)(F)[n+]2c(ccc5cc(C(C)(C)C)ccc52)C=3C#N)[B-](F)(F)[n+]2c(ccc3cc(C(C)(C)C)ccc32)C=4C#N)cc1 [near infrared fluorescent material F]	764 nm and 767 nm	774 nm and 870 nm	35%	not eluted; also recorded: Absence	–	–
CCCCCCCCOc1ccc(-c2c3c4n(c(-c5ccc(OCCCCCCCC)cc5)c3c3n2[B-](F)(F)[n+]2c(sc5cc(C(C)(C)C)ccc52)C=3C#N)[B-](F)(F)[n+]2c(sc3cc(C(C)(C)C)ccc32)C=4C#N)cc1 [near infrared fluorescent material B]	739 nm and 738 nm and 737 nm and 736 nm	758 nm and 833 nm and 756 nm and 834 nm and 753 nm and 754 am nm and 751 nm and 825 nm	36% and 34% and 39% and 46%	not eluted; also recorded: Absence	–	–
CCCCC(CC)COc1ccc(-c2c3c4n(c(-c5ccc(OCC(CC)CCCC)cc5)c3c3n2[B-](c2ccccc2)(c2ccccc2)[n+]2c(oc5ccc(C(C)(C)C)cc52)C=3C#N)[B-](c2ccccc2)(c2ccccc2)[n+]2c(oc3ccc(C(C)(C)C)cc32)C=4C#N)cc1 (stereo not shown) [near infrared fluorescent material H]	744 nm	787 nm and 865 nm	36%	not eluted; also recorded: Absence	–	–
COc1ccc(-c2cc3c(s2)=CC2=C(C(F)(F)F)c4cc5sc(-c6ccc(OC)cc6)cc5n4[B-](F)(F)[N+]=32)cc1 [near infrared fluorescent material D]	737 nm	765 nm	17%	not eluted; also recorded: Absence	–	–
COc1ccc(-c2cc3c(o2)=CC2=C(C(F)(F)F)c4cc5oc(-c6ccc(OC)cc6)cc5n4[B-](F)(F)[N+]=32)cc1 [near infrared fluorescent material A]	–	–	–	–	hardly eluted; also recorded: Absence	Absorption peak [1, 5]: 730 nm; Fluorescence peak [2, 7]: 810 nm; Quantum yield [2, 7]: 24%; Quantum yield [2, 5]: 26%; Absorption peak [4]: 730 nm
CCN1/C(=C\C=C2/CCC(/C=C/c3sc4ccc(Cl)cc4[n+]3CC)=C2N(c2ccccc2)c2ccccc2)Sc2ccc(Cl)cc21 [IR-140, reference compound]	–	–	–	–	eluted; also recorded: Presence	Presence or absence of material elution ([3]; TPU film, material 0.1% by mass, about 300 μm, methanol, 25° C., 8 hours, three extractions, listed as Comparative Example 1): elutes; light emission peak wavelength of the fluorescence spectrum in the test liquid of the eluting test [3, 8]: 846 nm; peak wavelength of the absorption spectrum in the test liquid of the eluting test [3, 8]: 812 nm

Source: patent US20210030895A1, “RESIN COMPOSITION AND MOLDED ARTICLE” (DIC Corporation, priority 2013, published 2021)
